Data on 59 compounds can be found in BindingDB's records for doi:10.1007/s10822-022-00478-x (Roche Innovation Center Basel, F. Hoffmann-La Roche Ltd., 2022).

The test has as its target cAMP and cAMP-inhibited cGMP 3',5'-cyclic phosphodiesterase 10A (Homo sapiens, UniProt Q9Y233). Kind of test: PDE10A assay. In a few lines: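 Human PDE10A (2 ng/well) preincubated 15 min RT with compound in HEPES pH 7.5, 10 mM MgCl2, BSA, then reacted 15 min with 50 nM [3H]cGMP/cGMP substrate. Stopped with Y-Si SPA beads; bound radioactivity counted, IC50 from four-parameter logistic, pIC50 = −log10(IC50).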

For `CN(C)c1nc2cc(NC(=O)c3c(C(=O)O)cnn3C)ccn2n1` [Roche-Dataset for PDE10A, Compound 768], the IC50 (as a rule, the concentration that gives 50% inhibition) amounted to 976 nM.

Compound `Cc1ncc(C)n2nc(/C=C/c3nc(C)n(-c4ccccc4)n3)nc12` [Roche-Dataset for PDE10A, Compound 720] had an IC50 of 177 nM.

`O=C(NCCc1noc(-c2ccccc2)n1)c1nc(C2CC2)cnc1Nc1cncnc1` [Roche-Dataset for PDE10A, Compound 271] came in with an IC50 of 48 nM.

In turn, `CN(C)c1nc(CCc2nc(-c3ccccc3)cn2C)nc2ccc(Cl)cc12` [Roche-Dataset for PDE10A, Compound 55] yielded an IC50 of 3.25 nM.

Take `Cc1nccc2nc(CCc3nc(N4CCCC4)nn3C)nn12` [Roche-Dataset for PDE10A, Compound 714]: the IC50 came to 84 nM.

`Cc1cnc(C)n2nc(CCc3nc(N4CCCC4)nn3C3CC3)nc12` [Roche-Dataset for PDE10A, Compound 436] gave an IC50 of 18 nM.

`Cc1ncc(Nc2cncnc2)c(C(=O)N[C@@H]2CCN(c3ccc(Cl)cn3)C2)n1` [Roche-Dataset for PDE10A, Compound 336] yielded an IC50 of 242 nM.

`Cc1ncc(C)n2nc(CCc3nc(N4CCNC4=O)nn3C)nc12` [Roche-Dataset for PDE10A, Compound 887] displayed an IC50 of 1060 nM.

`O=C(c1nc(C2CC2)cnc1Nc1cncnc1)N1CCC(N2CCOCC2)CC1` [Roche-Dataset for PDE10A, Compound 1098] displayed an IC50 of 10000 nM.

Take `Cc1c(C(F)(F)F)nc2ccc(C#Cc3nc(-c4ccccc4)cn3C)nn12` [Roche-Dataset for PDE10A, Compound 106]: the IC50 is 1.88 nM.

`COCc1ccc(Nc2cncnc2)c(C(=O)Nc2cc(-c3ccccn3)nn2CCO)n1` [US8470820, 11] registered an IC50 of 5.24 nM.

For `O=C(Nc1cnoc1-c1ccccc1)c1nc(C2CC2)ccc1Nc1cncnc1` [Roche-Dataset for PDE10A, Compound 607], the IC50 was determined as 1.93 nM.

For `Cn1ncc(C(=O)O)c1C(=O)Nc1ccc2nc(N3CCOCC3)nn2c1` [Roche-Dataset for PDE10A, Compound 1151], the IC50 is 1340 nM.

In turn, `Cn1ncc(C(=O)N2CCOCC2)c1C(=O)Nc1cn(-c2cccc(C(F)(F)F)n2)cn1` [Roche-Dataset for PDE10A, Compound 719] showed an IC50 of 8860 nM.

As for `Cn1ncc(C(=O)N2CCC2)c1C(=O)Nc1ccn(Cc2ccccc2)n1` [Roche-Dataset for PDE10A, Compound 950], the IC50 amounted to 116 nM.

For `O=C(NC[C@@H]1[C@@H](c2ccccc2)C1(F)F)c1nc(C2CC2)cnc1Nc1cncnc1` [Roche-Dataset for PDE10A, Compound 661], the midpoint of inhibition, the IC50, lay at 954 nM.

`CN(C)c1nc2ccc(NC(=O)c3c(C(=O)N4CCC4)cnn3C)cn2n1` [Roche-Dataset for PDE10A, Compound 652] showed an IC50 of 8.76 nM.

`COc1ccccc1-c1cn2c(n1)C[C@H](NC(=O)c1c(C(=O)N(C)C)cnn1C)CC2` [Roche-Dataset for PDE10A, Compound 473] showed an IC50 of 8.21 nM.

On to `Cn1ncc(C(=O)NC2COC2)c1C(=O)N[C@@H]1CCn2cc(-c3ccccc3)nc2C1` [Roche-Dataset for PDE10A, Compound 302], for which half-maximal inhibition (IC50) required 181 nM.

`O=C(Nc1ccncc1F)c1ccc2cc(-c3ccccc3)nn2c1` [Roche-Dataset for PDE10A, Compound 471] came in with an IC50 of 933 nM.

With `Cc1cc(CNC(=O)c2cnn(C)c2C(=O)Nc2ccn3cc(-c4ccccc4)nc3n2)n[nH]1` [Roche-Dataset for PDE10A, Compound 99], 17 nM corresponded to half-maximal inhibition (IC50).

Compound `Cn1ncc(C(=O)N2CCC2)c1C(=O)Nc1ccn(C(C)(C)C)n1` [Roche-Dataset for PDE10A, Compound 1109] had an IC50 of 672 nM.

With `CNC(=O)c1cc2[nH]c(-c3ccccc3)nc2cc1NC(=O)c1c(Cl)c(C)nn1C` [Roche-Dataset for PDE10A, Compound 358], the IC50 worked out at 22 nM.

`CNC(=O)c1cccc(NC(=O)c2nc(C3CC3)cnc2Nc2cncnc2)n1` [Roche-Dataset for PDE10A, Compound 1026]: the IC50 was determined as 170 nM.

For the compound `CNC(=O)c1cc2[nH]c(-c3ccccc3)nc2cc1NC(=O)c1cc(C)nn1C(C)(C)C` [Roche-Dataset for PDE10A, Compound 558], the IC50 was 944 nM.

With `CCc1nc(C)c(C(=O)Nc2cc3nc(-c4ccccc4)[nH]c3cc2C(=O)NCC2(CO)COC2)o1` [Roche-Dataset for PDE10A, Compound 163], the IC50 is 7.27 nM.

`CN(CCO)c1nc(OCc2nc(-c3ccccc3)cn2C)nc2ccc(Cl)cc12` [Roche-Dataset for PDE10A, Compound 19] yielded an IC50 of 3.09 nM.

For `Cn1cc(-c2ccccc2)nc1CCc1nc2c(cnn2C)c(=O)[nH]1` [Roche-Dataset for PDE10A, Compound 854], the IC50 was found to be 50 nM.

On to `Cn1ncc(C(=O)N2CCC2)c1C(=O)Nc1ccn(CCN2CCOCC2)n1` [Roche-Dataset for PDE10A, Compound 1030], for which 368 nM corresponded to half-maximal inhibition (IC50).

In the case of `Cc1ccc(CNC(=O)c2cnn(C)c2C(=O)Nc2ccn3cc(-c4ccccc4)nc3n2)nc1` [Roche-Dataset for PDE10A, Compound 862], the IC50 stood at 322 nM.

Regarding `Cc1ncc(C)n2nc(/C=C/c3nc(Br)cn3C3CC3)nc12` [Roche-Dataset for PDE10A, Compound 964], the midpoint of inhibition, the IC50, lay at 6650 nM.

`O=C(Nc1ccn2nc(-c3ccccc3)nc2c1)c1ccc(Cl)cn1` [Roche-Dataset for PDE10A, Compound 778] had an IC50 of 10000 nM.

The compound `Cn1ncc(C(=O)N2CC(F)C2)c1C(=O)Nc1ccn2nc(-c3cccnc3)nc2c1` [Roche-Dataset for PDE10A, Compound 337] gave an IC50 of 1.16 nM.

Compound `CN(C)CCn1nccc1NC(=O)c1nc(C2CC2)cnc1Nc1cncnc1` [Roche-Dataset for PDE10A, Compound 857] displayed an IC50 of 314 nM.

`COc1c(C)cnc(CCc2ccc3ccccc3n2)c1C` [Roche-Dataset for PDE10A, Compound 701] gave an IC50 of 1480 nM.

In the case of `Cn1ncc(C(=O)N2CCC2)c1C(=O)Nc1ccn2nc(-c3ccnc(Cl)c3)nc2c1` [Roche-Dataset for PDE10A, Compound 218], the half-maximal inhibitory concentration (IC50) turned out to be 6.9 nM.

The compound `Cc1nc2c(C)c(C)c(CCc3nc(-c4ccccc4)cn3C)nn2c1C` [US10399985, Example 14] had an IC50 of 2.4 nM.

Consider `O=C(Nc1ccnc(Cl)c1)c1ccc2cc(-c3ccccc3)nn2c1` [Roche-Dataset for PDE10A, Compound 310], for which the IC50 worked out at 37 nM.

With `COCCNC(=O)c1nc(C2CC2)cnc1Nc1cncnc1` [Roche-Dataset for PDE10A, Compound 946], the IC50 was 2540 nM.

On to `CCn1cc(-c2ccccc2)nc1CCc1nc2ccccc2nc1C` [Roche-Dataset for PDE10A, Compound 87], for which the IC50 turned out to be 41 nM.

With `C/C(=C/c1nc2c(C)ncc(C)n2n1)c1nc(Br)nn1C` [Roche-Dataset for PDE10A, Compound 1134], 2260 nM corresponded to half-maximal inhibition (IC50).

The compound `Cn1nc(-c2ccccn2)cc1NC(=O)c1c(Nc2cncnc2)cc[nH]c1=O` [Roche-Dataset for PDE10A, Compound 711] displayed an IC50 of 18 nM.

In turn, `CC(C)c1nnc2c(C(=O)NCCc3nc(-c4ccccc4)cn3C)cccn12` [Roche-Dataset for PDE10A, Compound 201] showed an IC50 of 25 nM.

`Cc1ccc(NC(=O)c2nc(C3CC3)cnc2Nc2cncnc2)c(C(=O)N(C)C)n1` [US8703768, 276]: the IC50 came out at 13 nM.

On to `O=C(Nc1cc(-c2ccccn2)nn1CCN1CCOCC1)c1nc(C2CC2)ccc1Nc1cncnc1` [US8470820, 16], for which half-maximal inhibition (IC50) required 1.53 nM.

On to `O=C1CCc2c(NC(=O)c3nc(C4CC4)cnc3Nc3cncnc3)cccc21` [Roche-Dataset for PDE10A, Compound 932], for which the IC50 amounted to 124 nM.

In turn, `O=C(Nc1ccn2nc(-c3ccccc3)nc2c1)c1cc(Cl)nc(Cl)c1` [Roche-Dataset for PDE10A, Compound 327] yielded an IC50 of 38 nM.

On to `CCCn1ccc(NC(=O)c2c(C(=O)N3CCC3)cnn2C)n1` [Roche-Dataset for PDE10A, Compound 1116], for which the IC50 was 404 nM.

In turn, `O=C(NCC1CCC1)c1nc(C2CC2)cnc1Nc1cncnc1` [Roche-Dataset for PDE10A, Compound 1038] came in with an IC50 of 1590 nM.

Turning to `CC(C)Oc1cncc(NC(=O)c2nc(C3CC3)cnc2Nc2cncnc2)c1` [Roche-Dataset for PDE10A, Compound 816], the IC50 was 63 nM.

For `Cc1c(C(F)(F)F)nc2ccc(C#Cc3nc(N4CCCC4)n(C)n3)nn12` [3-Methyl-6-((1-methyl-5-(pyrrolidin-1-yl)-1H-1,2,4-triazol-3-yl)ethynyl)-2-(trifluoromethyl)imidazo[1,2-b]pyridazine], it took 3.92 nM to reach half-maximal inhibition (IC50).

The compound `O=C(NCCN1CCCc2ccccc21)c1nc(C2CC2)cnc1Nc1cncnc1` [Roche-Dataset for PDE10A, Compound 449] gave an IC50 of 46 nM.

`CN(C)C(=O)c1cc(NC(=O)c2nc(C3CC3)ccc2Nc2cncnc2)[nH]n1` [Roche-Dataset for PDE10A, Compound 748] displayed an IC50 of 1150 nM.

Take `COC1CN(C(=O)c2cnn(C)c2C(=O)Nc2ccn3nc(-c4ccccc4)nc3c2)C1` [Roche-Dataset for PDE10A, Compound 139]: the IC50 was found to be 25 nM.

In turn, `O=C(Nc1ccnnc1)c1nc(C2CC2)cnc1Nc1cncnc1` [Roche-Dataset for PDE10A, Compound 1083] yielded a 50% inhibitory concentration (IC50) of 288 nM.

In turn, `Cn1ncc(C(=O)N2CCC2)c1C(=O)Nc1cc2nc(N3CCOCC3)nn2cn1` [Roche-Dataset for PDE10A, Compound 422] registered an IC50 of 4.83 nM.

Regarding `Cc1ccc(C)c(C(=O)Nc2ccc3cc(-c4ccccc4)nn3c2)n1` [Roche-Dataset for PDE10A, Compound 324], it took 53 nM to reach half-maximal inhibition (IC50).

As for `Cn1cc(-c2ccccc2)nc1CCc1nc(-c2ccccc2)cc(=O)[nH]1` [Roche-Dataset for PDE10A, Compound 94], the IC50 is 987 nM.

In the case of `Cn1cc(-c2ccccc2)nc1CCNC(=O)c1cccn2cnnc12` [Roche-Dataset for PDE10A, Compound 182], it took 392 nM to reach half-maximal inhibition (IC50).
